Like-named read-outs stand apart in the source and are kept apart here.
Legend:
[1] = Pharmacokinetic testing of salt forms, oral dosing in rats (Example 5); assay type: in vivo; conditions: fasted male Sprague-Dawley rats, mean values
[2] = Solid state stability at 40° C./75% RH for 3 weeks (HPLC purity, form change); assay type: physicochemical; conditions: for chemical stability (HPLC purity change, in words): 3 weeks at 40° C. and 75% relative humidity; for Form Change at 3 weeks / HPLC Purity at 3 weeks: 3 weeks under 40° C./75% RH; for Initial HPLC Purity: before storage
Procedure: Agilent 1260 HPLC was utilized and detailed chromatographic conditions for purity and solubility measurement are listed in Table 15 below.
The table below summarizes the characterization and solid state stability results observed for FB and Forms A, B, and D. Samples were prepared and data was obtained according to the procedures and processes listed above unless otherwise specified. More procedures, processes, and results are listed below in Table 16.

[3] = Kinetic solubility in bio-relevant buffers (FaSSIF, FeSSIF, SGF); assay type: physicochemical; conditions: 37° C.
[4] = pH solubility in pH 2, 4, 6, 8 and 10 buffers; assay type: physicochemical; conditions: 37° C.; for Form change (FC) of residual solid, pH 4.0: pH 4.0 buffer; for Form change (FC) of residual solid, pH 6.0: pH 6.0 buffer; for Form change (FC) of residual solid, pH 8.0: pH 8.0 buffer; for Form change (FC) of residual solid, pH 10.0: pH 10.0 buffer
[5] = Dynamic Vapor Sorption (DVS), hygroscopicity/water uptake; assay type: physicochemical; conditions: for Hygroscopicity: DVS up to 80% RH at 25° C.; for water uptake at 80% RH: DVS; for water uptake at 80% RH / Form change (FC) after DVS: 25° C.; for Form change (FC) after DVS: at the end of the DVS test, up to 80% RH
Procedure: The Dynamic Vapour Sorption studies were performed using a Surface Measurement Systems Ltd. DVS-1 No Video, equipment #2126. The sample is loaded into balance pan, typically 20-30 mg, and equilibrated at 0% RH. […] After completion of the sorption cycle, the sample was dried using the same method. The software used for data collection is DVSWin v3.01 No Video. Data analysis is performed using DVS Standard Analysis Suite v6.3.0 (Standard).

[6] = Stability studies of crystalline forms (Table 17, stability by HPLC); assay type: physicochemical; conditions: for Stability by HPLC (in words): stability studies of Table 17; for Stability Results, 40° C.: stored at 40° C.; for Stability Results, 40° C./75% RH: stored at 40° C./75% RH; for Stability Results, 60° C.: stored at 60° C.; for Stability Results, 60° C./75% RH: stored at 60° C./75% RH
[7] = Moisture sorption isotherm of crystalline forms; assay type: physicochemical; conditions: for crystal form by XRPD after the moisture absorption/desorption cycle: XRPD before and after moisture sorption isotherm
[8] = Salt screening, stability of salt forms; assay type: physicochemical; conditions: salt screening of Compound 1
Procedure: The salt screen was performed using the Crystal16 equipment.

[9] = dose mg/kg: Compound 1 18.2, Phosphate 14.3, Tartrate 18.7, Malate 18.6, Succinate 18.7, Benzenesulfonate 17.6

Compound	chemical stability (HPLC purity change, in words) [2]	Form Change at 3 weeks [2]	HPLC Purity at 3 weeks [2] [area %]	Initial HPLC Purity [2] [area %]	Form change (FC) of residual solid, FaSSIF ([3]; FaSSIF, 24 hours)	Form change (FC) of residual solid, pH 4.0 ([4]; 24 hours)	Form change (FC) of residual solid, pH 6.0 ([4]; 24 hours)	Form change (FC) of residual solid, pH 8.0 ([4]; 24 hours)	Form change (FC) of residual solid, pH 10.0 ([4]; 24 hours)	Stability Results, Initial [6] [%]	Stability Results, 40° C. [6] [%]	Stability Results, 40° C./75% RH [6] [%]	Stability Results, 60° C. [6] [%]	Stability Results, 60° C./75% RH [6] [%]	Moisture sorption isotherm (in words) [7]	crystal form by XRPD after the moisture absorption/desorption cycle [7]	other results
CN1CCN(Cc2ccc(Nc3ncc(Cl)c(Nc4ccccc4S(=O)(=O)N(C)C)n3)cc2)CC1 [Compound 1, 2-((5-chloro-2-((4-((4-methylpiperazin-1-yl)methyl)phenyl)amino)pyrimidin-4-yl)amino)-N,N-dimethylbenzenesulfonamide]	no significant HPLC purity decrease	No	98.6	98.3	No	Yes	No	No	No	–	–	–	–	–	–	–	bioavailability ([1]; rat, plasma, 18.2 mg/kg, dose mg/kg: Compound 1 18.2, Phosphate 14.3, Tartrate 18.7, Malate 18.6, Succinate 18.7, Benzenesulfonate 17.6): 26.9%; AUC(0-t) ([1]; rat, plasma, 18.2 mg/kg, dose mg/kg: Compound 1 18.2, Phosphate 14.3, Tartrate 18.7, Malate 18.6, Succinate 18.7, Benzenesulfonate 17.6, read-out: AUC0-24 hours): 458 ng·h/mL; Cmax ([1]; rat, plasma, 18.2 mg/kg, dose mg/kg: Compound 1 18.2, Phosphate 14.3, Tartrate 18.7, Malate 18.6, Succinate 18.7, Benzenesulfonate 17.6, read-out: Cmax): 116 ng/mL; Tmax ([1]; rat, plasma, 18.2 mg/kg, dose mg/kg: Compound 1 18.2, Phosphate 14.3, Tartrate 18.7, Malate 18.6, Succinate 18.7, Benzenesulfonate 17.6, read-out: Tmax): 50 min; Form change (FC) of residual solid, FeSSIF ([3]; FeSSIF, 24 hours): No; Form change (FC) of residual solid, SGF ([3]; SGF, 24 hours): No; Form change (FC) of residual solid, pH 2.0 ([4]; pH 2.0 buffer, 24 hours): Yes; Hygroscopicity ([5]; listed as Free Base): Non-hygroscopic/; Hygroscopicity ([5]; listed as free base): non-hygroscopic; water uptake at 80% RH ([5]; listed as Free Base): 0.07%; water uptake at 80% RH ([5]; listed as free base): less than 0.2%; Form change (FC) after DVS ([5]; listed as Free Base): No; Form change (FC) after DVS ([5]; listed as free base): no form change
CN1CCN(Cc2ccc(Nc3ncc(Cl)c(Nc4ccccc4S(=O)(=O)N(C)C)n3)cc2)CC1.O=C(O)C(O)C(O)C(=O)O.O=C(O)C(O)C(O)C(=O)O [Form A, 2-((5-chloro-2-((4-((4-methylpiperazin-1-yl)methyl)phenyl)amino)pyrimidin-4-yl)amino)-N,N-dimethylbenzenesulfonamide di-tartrate salt]	no significant HPLC purity decrease	No	99.7	99.6	–	Yes	Yes	Yes	Yes	99.3	99.3	99.3	99.3	99.3	hygroscopic	maintained	pH solubility compared between polymorphs (in words) ([4]; pH 2, 4 and 6 buffers): higher solubility than other polymorphs; water uptake at 80% RH ([5]; di-tartrate salt): 4.6%; Form change (FC) after DVS [5]: No; Stability by HPLC (in words) ([6]; di-tartrate salt): No significant changes; Stability by HPLC (in words) ([6]; listed as A, di-tartrate salt): Stable
CN1CCN(Cc2ccc(Nc3ncc(Cl)c(Nc4ccccc4S(=O)(=O)N(C)C)n3)cc2)CC1.O=C(O)C(O)C(O)C(=O)O [Form D, 2-((5-chloro-2-((4-((4-methylpiperazin-1-yl)methyl)phenyl)amino)pyrimidin-4-yl)amino)-N,N-dimethylbenzenesulfonamide mono-tartrate salt]	no significant HPLC purity decrease	No	98.3	98.8	Yes	Yes	Yes	Yes	Yes	98.4	98.2	98.4	98.2	98.2	hygroscopic	transformed to the other forms	Kinetic solubility in FaSSIF compared between forms (in words) ([3]; FaSSIF): lower solubility than other Forms A and B; water uptake at 80% RH ([5]; mono-tartrate salt): 5.2%; Form change (FC) after DVS ([5]; mono-tartrate salt): form change observed and Yes; Stability by HPLC (in words) ([6]; listed as D, mono-tartrate salt): Stable; Stability by HPLC (in words) ([6]; mono-tartrate salt): No significant changes
CN1CCN(Cc2ccc(Nc3ncc(Cl)c(Nc4ccccc4S(=O)(=O)N(C)C)n3)cc2)CC1.O=C(O)C[C@H](O)C(=O)O [Malate Salt]	–	–	–	–	–	–	–	–	–	–	–	–	–	–	–	–	AUC0-24 hours [1, 9]: 515 ng·h/mL; Cmax [1, 9]: 134 ng/mL; Tmax [1, 9]: 30 min
CN1CCN(Cc2ccc(Nc3ncc(Cl)c(Nc4ccccc4S(=O)(=O)N(C)C)n3)cc2)CC1.O=P(O)(O)O [Phosphate Salt]	–	–	–	–	–	–	–	–	–	–	–	–	–	–	–	–	stability of the salt form (in words) [8]: undesirable stability characteristics
